We go through 14 compounds from patent US20240287076A1, “COMPOUNDS FOR TARGETING DEGRADATION OF BRUTON'S TYROSINE KINASE” (BIOGEN MA INC., priority 2021, published 2024).

The target in this assay is T1, BTK (Homo sapiens, UniProt Q06187).
T1 construct: The GM01501.3 cell line endogenously expresses BTK with a HiBiT fusion tag via CRISPR knock-in at its C-terminal region; endogenous in cells; host or cells: GM01501.3 (GM01501 cells engineered by CRISPR knock-in of HiBiT at the BTK locus)
Put plainly: BTK degradation assay using the HiBiT Method (Nano-Glo HiBiT Lytic Assay, GM01501.3 cells). It counts as cell-based. Particulars: HiBiT Degradation on GM01501.3 BTK @ 6 hours. An outline of the steps:
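Degradation read-out: HiBiT luminescence after lytic reagent addition, giving DC50. Compounds dosed from 10 μM in 11 half-log steps (duplicate) onto GM01501.3 cells, whose endogenous BTK carries a C-terminal HiBiT knock-in tag; 6 h exposure, 37 °C, 5% CO2.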

T1 sequence (Q06187 whole entry, the tested form may be a part): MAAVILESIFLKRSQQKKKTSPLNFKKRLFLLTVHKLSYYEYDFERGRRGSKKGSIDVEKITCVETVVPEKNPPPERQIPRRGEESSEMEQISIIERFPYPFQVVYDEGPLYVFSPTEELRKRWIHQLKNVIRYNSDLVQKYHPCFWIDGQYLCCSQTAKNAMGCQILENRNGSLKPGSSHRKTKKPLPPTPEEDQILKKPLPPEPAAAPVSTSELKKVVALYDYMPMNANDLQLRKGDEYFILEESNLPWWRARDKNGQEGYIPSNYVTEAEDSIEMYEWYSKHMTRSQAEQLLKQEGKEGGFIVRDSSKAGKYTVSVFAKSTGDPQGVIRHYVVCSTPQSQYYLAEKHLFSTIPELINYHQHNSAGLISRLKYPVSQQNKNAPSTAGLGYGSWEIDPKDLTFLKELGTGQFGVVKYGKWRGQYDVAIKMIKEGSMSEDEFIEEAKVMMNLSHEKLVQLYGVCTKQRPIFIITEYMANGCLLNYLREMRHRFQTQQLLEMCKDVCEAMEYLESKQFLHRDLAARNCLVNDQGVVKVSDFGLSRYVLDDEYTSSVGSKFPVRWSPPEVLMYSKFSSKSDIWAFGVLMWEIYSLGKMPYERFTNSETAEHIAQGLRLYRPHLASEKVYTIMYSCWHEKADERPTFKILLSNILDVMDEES

In turn, `Cc1cc(-c2ncnn3cc(CCCCN4CCC(c5ccc6c(N7CCC(=O)NC7=O)nn(C)c6c5)CC4)cc23)ccc1CNC(=O)c1cnn(C(C)(C)C)c1` [Example 281, 1-(tert-butyl)-N-(4-(6-(4-(4-(3-(2,4-dioxotetrahydropyrimidin-1(2H)-yl)-1-methyl-1H-indazol-6-yl)piperidin-1-yl)butyl)pyrrolo[2,1-f][1,2,4]triazin-4-yl)-2-methylbenzyl)-1H-pyrazole-4-carboxamide] showed a DC50 of less than 100 nM. In the case of `CC(C)(C)c1nc(C(=O)NCc2ccc(-c3ncnn4cc(CCCCN5CCC(c6ccc(NC7CCC(=O)NC7=O)cn6)CC5)cc34)cc2F)no1` (centres unmarked) [Example 134, 5-tert-butyl-N-[[4-[6-[4-[4-[5-[(2,6-dioxo-3-piperidyl)amino]-2-pyridyl]-1-piperidyl]butyl]pyrrolo[2,1-f][1,2,4]triazin-4-yl]-2-fluoro-phenyl]methyl]-1,2,4-oxadiazole-3-carboxamide] it was less than 100 nM; in that of `COc1cc(-c2ncnn3cc(-c4ccc(CN5CCC(c6ccc(C7CCC(=O)NC7=O)cc6)CC5)cc4)cc23)ccc1CNC(=O)c1noc(C(C)(C)C)n1` (centres unmarked) [Example 43, 5-tert-butyl-N-[[4-[6-[4-[[4-[4-(2,6-dioxo-3-piperidyl)phenyl]-1-piperidyl]methyl]phenyl]pyrrolo[2,1-f][1,2,4]triazin-4-yl]-2-methoxy-phenyl]methyl]-1,2,4-oxadiazole-3-carboxamide], less than 100 nM; in that of `Cc1cc(-c2ncnn3cc(-c4ccc(CCCCc5ccc(NC6CCC(=O)NC6=O)cc5)cc4)cc23)ccc1CNC(=O)c1noc(C(C)(C)C)n1` (centres unmarked) [Example 149, 5-tert-butyl-N-[[4-[6-[4-[4-[4-[(2,6-dioxo-3-piperidyl)amino]phenyl]butyl]phenyl]pyrrolo[2,1-f][1,2,4]triazin-4-yl]-2-methyl-phenyl]methyl]-1,2,4-oxadiazole-3-carboxamide], 100 to 500 nM. In the case of `Cn1nc(N2CCC(=O)NC2=O)c2ccc(C3CCN(Cc4ccc(-c5cc6nccc(-c7ccc(CNC(=O)N8CC(OC(C)(C)C)C8)c(F)c7)n6n5)cc4)CC3)cc21` [Example 165, 3-tert-butoxy-N-[[4-[2-[4-[[4-[3-(2,4-dioxohexahydropyrimidin-1-yl)-1-methyl-indazol-6-yl]-1-piperidyl]methyl]phenyl]pyrazolo[1,5-a]pyrimidin-7-yl]-2-fluoro-phenyl]methyl]azetidine-1-carboxamide] it was less than 100 nM; in that of `Cc1cc(-c2ncnn3cc(-c4ccc(OCCN5CCC(c6ccc(NC7CCC(=O)NC7=O)cc6)CC5)cc4)cc23)ccc1CNC(=O)c1noc(C(C)(C)C)n1` (centres unmarked) [Example 105, 5-tert-butyl-N-[[4-[6-[4-[2-[4-[4-[(2,6-dioxo-3-piperidyl)amino]phenyl]-1-piperidyl]ethoxy]phenyl]pyrrolo[2,1-f][1,2,4]triazin-4-yl]-2-methyl-phenyl]methyl]-1,2,4-oxadiazole-3-carboxamide], less than 100 nM. Under `Cc1cc(-c2ncnn3cc(CCN4CCC(c5ccc(OC6CCC(=O)NC6=O)cc5)CC4)cc23)ccc1CNC(=O)c1noc(C(C)(C)C)n1` (centres unmarked) [Example 118, 5-tert-butyl-N-[[4-[6-[2-[4-[4-[(2,6-dioxo-3-piperidyl)oxy]phenyl]-1-piperidyl]ethyl]pyrrolo[2,1-f][1,2,4]triazin-4-yl]-2-methyl-phenyl]methyl]-1,2,4-oxadiazole-3-carboxamide] stands less than 100 nM; under `Cc1cc(-c2ncnn3cc(N4CCN(C(=O)CC5CC6(C5)CN(C(=O)c5ccc(OC7CCC(=O)NC7=O)cc5)C6)CC4)cc23)ccc1CNC(=O)c1noc(C(C)(C)C)n1` (centres unmarked) [Example 185, 5-(tert-butyl)-N-(4-(6-(4-(2-(2-(4-((2,6-dioxopiperidin-3-yl)oxy)benzoyl)-2-azaspiro[3.3]heptan-6-yl)acetyl)piperazin-1-yl)pyrrolo[2,1-f][1,2,4]triazin-4-yl)-2-methylbenzyl)-1,2,4-oxadiazole-3-carboxamide], less than 100 nM; under `CC(C)(C)c1nc(C(=O)NCc2ccc(-c3ncnn4cc(-c5ccc(CN6CCC(c7ccc(C8CCC(=O)NC8=O)cc7)CC6)cc5)cc34)cc2F)no1` (centres unmarked) [Example 42, 5-tert-butyl-N-[[4-[6-[4-[[4-[4-(2,6-dioxo-3-piperidyl)phenyl]-1-piperidyl]methyl]phenyl]pyrrolo[2,1-f][1,2,4]triazin-4-yl]-2-fluoro-phenyl]methyl]-1,2,4-oxadiazole-3-carboxamide], less than 100 nM. In the case of `Cc1cc(-c2ncnn3cc(CCCCN4CCC(c5ccc6c(N7CCC(=O)NC7=O)nn(C)c6c5)CC4)cc23)ccc1CNC(=O)c1noc(C(C)(C)C)n1` [Example 133, 5-tert-butyl-N-[[4-[6-[4-[4-[3-(2,4-dioxohexahydropyrimidin-1-yl)-1-methyl-indazol-6-yl]-1-piperidyl]butyl]pyrrolo[2,1-f][1,2,4]triazin-4-yl]-2-methyl-phenyl]methyl]-1,2,4-oxadiazole-3-carboxamide], the DC50 was less than 100 nM.

The compound `Cc1cc(-c2ncnn3cc(-c4ccc(CN5CCC(c6ccc(NC7CCC(=O)NC7=O)cc6)CC5)cc4)cc23)ccc1CNC(=O)c1noc(C(C)(C)C)n1` (single isomer, unassigned; isomer 1) [Example 2, 5-tert-butyl-N-[[4-[6-[4-[[4-[4-[(2,6-dioxo-3-piperidyl)amino]phenyl]-1-piperidyl]methyl]phenyl]pyrrolo[2,1-f][1,2,4]triazin-4-yl]-2-methyl-phenyl]methyl]-1,2,4-oxadiazole-3-carboxamide isomer 1] gave a DC50 of less than 100 nM. Under `Cc1cc(-c2ncnn3cc(-c4ccc(CN5CCC(c6ccc(NC7CCC(=O)NC7=O)nn6)CC5)cc4)cc23)ccc1CNC(=O)c1noc(C(C)(C)C)n1` (centres unmarked) [Example 31, 5-tert-butyl-N-[[4-[6-[4-[[4-[6-[(2,6-dioxo-3-piperidyl)amino]pyridazin-3-yl]-1-piperidyl]methyl]phenyl]pyrrolo[2,1-f][1,2,4]triazin-4-yl]-2-methyl-phenyl]methyl]-1,2,4-oxadiazole-3-carboxamide] stands less than 100 nM; under `CC(C)(C)c1nc(C(=O)NCc2ccc(-c3ncnn4cc(-c5ccc(CN6CCN(Cc7ccc(OC8CCC(=O)NC8=O)cc7)CC6)cn5)cc34)cc2F)no1` (centres unmarked) [Example 234, 5-(tert-butyl)-N-(4-(6-(5-((4-(4-((2,6-dioxopiperidin-3-yl)oxy)benzyl)piperazin-1-yl)methyl)pyridin-2-yl)pyrrolo[2,1-f][1,2,4]triazin-4-yl)-2-fluorobenzyl)-1,2,4-oxadiazole-3-carboxamide], less than 100 nM; under `Cc1cc(-c2ncnn3cc(-c4ccc(CN5CCC(c6ccc(NC7CCC(=O)NC7=O)cc6)CC5)cc4)cc23)ccc1CNC(=O)c1noc(C(C)(C)C)n1` (single isomer, unassigned; isomer 2) [Example 3, 5-tert-butyl-N-[[4-[6-[4-[[4-[4-[(2,6-dioxo-3-piperidyl)amino]phenyl]-1-piperidyl]methyl]phenyl]pyrrolo[2,1-f][1,2,4]triazin-4-yl]-2-methyl-phenyl]methyl]-1,2,4-oxadiazole-3-carboxamide isomer 2], less than 100 nM.

Broadly, the DC50 is the concentration giving 50% degradation.
